The results in this text go back to US20190262266A1, “FORMULATIONS” (OXY SOLUTIONS AS, priority 2016, published 2019).

Entries after “also recorded” stand apart in the source; their conditions may differ. Like-named read-outs stand apart in the source and are kept apart here.

In series [1] the test system is human skin fibroblasts. How it is done:
(§1) Oxygenated medium was prepared using powder cell medium, diluted with Oxy Water prepared according to Example 5. The mixing ratio depended on the desired concentration of dissolved oxygen in the final cell medium. DMEM or DMEM medium without phenol red was used (Sigma Aldrich). The medium was supplied with additives and FBS. The phenol red free cell medium was used for the ROS experiment to avoid disturbance of the fluorescent readings.

For series [2], the system named is human skin fibroblasts. The following applies: DO up to 50 mg/L, DMEM w/1% FBS, control 11 mg/L; for cell viability / number of dead cells compared to control: 4 days; for proliferation compared to control: up to 4 days. How it is done: as §1
HSFs were seeded at a density of 5×10^4 cells/25 cm^2 and left overnight. The cells were treated with control cell medium (1% FBS, dissolved oxygen: 11 mg/L), oxygenated cell medium (1% FBS, dissolved oxygen: 23, 31, 41, 50 mg/L), or 10% FBS, dissolved oxygen: 10 mg/L. After stimulation, the cells were left at room temperature for 30 min, followed by incubation at 37° C. The treatment was repeated every 24 hours up to 4 days. On day 2, 3 and 4 the cells were harvested; the cell suspension was mixed with trypan blue and live cells were manually counted using a hemocytometer and dead cells were counted using a TC20 Automated cell counter (BioRad, USA). 1% Triton X was used as a positive control for cell death.

The test system of series [3] is human skin fibroblasts. The series is described as follows: Reactive oxygen species (ROS) production in human skin fibroblasts (DCFDA). The conditions noted are these: 30 min; for ROS, relative fluorescence (×10^3): 5% FBS; for ROS production compared to control: DO 21-35 mg/L, 5% FBS (5% or 10% FBS), control 8.6 mg/L. How it is done: as §1
HSFs were seeded at a density of 2.5×10^4 cells/0.32 cm^2 and were grown to confluence overnight. The cells were stained with 20 uM DCFDA solution (2′,7′-dichlorofluorescin diacetate) (DCFDA Cellular ROS Detection Assay Kit, Abcam, Cambridge, UK) and incubated for 45 min at 37° C. protected from light exposure. Control cell medium (5% FBS, dissolved oxygen: 8.6 mg/L), oxygenated cell medium (5% FBS, dissolved oxygen: 21.6, 26.5, 34.9 mg/L) and positive control (500 μM H2O2, 5% FBS, dissolved oxygen: 8.6 mg/L) were added. The cells were incubated at room temperature. The fluorescence was read with an FLx800 plate reader (BioTek, Winooski, USA) with excitation wavelength at 485 nm and emission wavelength 520 nm, 30 min after adding the treatments. The values were corrected for blank readings and presented as relative fluorescence (×10^3). The experiments were repeated using 10% FBS.

Turning to `O=O` [dissolved oxygen], the ATP levels with human skin fibroblasts [1] (33 mg/L DO, DMEM w/10% FBS, 4 h, re-stimulated at 1, 2 and 3 hours) is 113.1 nm ATP/10^5 cells. Further, the “levels of ATP” value with human skin fibroblasts [1] (33 mg/L dissolved oxygen, four hourly stimulations) is 113.1±10.1 nM ATP/10^5 live cells. Further, the “cell viability / number of dead cells compared to control” value with human skin fibroblasts [2] is on record as “nor did it change the level of cell viability”; in the series with human skin fibroblasts [2] (listed as DO), “did not significantly alter the number of dead cells”. Further, the results for the “proliferation compared to control” value in the series with human skin fibroblasts [2] and in the series with human skin fibroblasts [2] (listed as DO) were “did not change cell proliferation” and “did not significantly alter the proliferation rate”, respectively. In addition, the “ROS, relative fluorescence (×10^3)” value in the series with human skin fibroblasts [3] (21.6 mg/L dissolved oxygen) was 9.3±3.4; in the series on human skin fibroblasts [3] (26.5 mg/L dissolved oxygen) it was 15.2±4.5; in the series on human skin fibroblasts [3] (34.9 mg/L dissolved oxygen), 8.9±2.9. The entries for the “ROS production compared to control” value in the series on human skin fibroblasts [3] and in the series with human skin fibroblasts [3] (listed as DO) were “did not significantly change; also recorded: no significant increase” and “no significant differences”, respectively.
